Changes are numbered by the printed parent chain. Where “and” joins values, the source holds several entries; their conditions need not be identical. Identical values can stand only once. Like-named read-outs stand apart in the source and are kept apart here.
Columns and labels:
[1] = molecular target: NLuc^N-PYR1^4F (Arabidopsis) (UniProt O49686)
[2] = molecular target: NLuc^N-PYR1^WIN (Arabidopsis) (UniProt O49686)
[3] = molecular target: NLuc^N-PYR1^PIRI (Arabidopsis) (UniProt O49686)
[4] = molecular target: NLuc^N-PYR1^DIAZI (Arabidopsis) (UniProt O49686)
PYR1^M (H60P, N90S) = molecular target: T1, PYR1^M (H60P, N90S) (Arabidopsis thaliana, UniProt O49686, H60P/N90S); assay: ELISA-like plate assay, immobilized PYR1^M, biotinylated ΔN-HAB1^T+, streptavidin-HRP; assay type: binding; conditions: for ELISA signal generation, positive control (source data): PYR1^M tested with ABA, replicates, listed as + CNTRL
T1 construct: made in house; host or cells: E. coli (pET derivatives)
T1 sequence (O49686 1-191 H60P/N90S): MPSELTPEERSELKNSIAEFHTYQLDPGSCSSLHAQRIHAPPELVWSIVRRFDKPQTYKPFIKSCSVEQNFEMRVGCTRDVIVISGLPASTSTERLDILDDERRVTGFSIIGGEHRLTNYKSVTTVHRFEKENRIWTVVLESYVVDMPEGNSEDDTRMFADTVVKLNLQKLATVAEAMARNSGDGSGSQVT
T1 sequence (Q9CAJ0 179-511 C186S/R199A/D204A/S209V/H248S/F260E/C274S/D287K/S292N/S342A/M358I/N377A/R422E/N439S/M483K partner): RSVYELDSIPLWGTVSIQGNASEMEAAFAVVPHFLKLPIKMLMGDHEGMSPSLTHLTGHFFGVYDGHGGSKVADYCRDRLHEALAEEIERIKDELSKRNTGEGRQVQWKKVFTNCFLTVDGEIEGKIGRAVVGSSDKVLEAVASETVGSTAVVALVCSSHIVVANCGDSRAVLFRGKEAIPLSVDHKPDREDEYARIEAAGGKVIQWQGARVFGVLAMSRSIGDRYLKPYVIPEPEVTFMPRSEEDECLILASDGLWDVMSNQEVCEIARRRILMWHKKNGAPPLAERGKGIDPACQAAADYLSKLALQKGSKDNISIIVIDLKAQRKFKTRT

PYR1^PIRI = molecular target: T2, PYR1^PIRI (Arabidopsis thaliana, UniProt O49686, A160T/E130G/F159T/K59R/N119S/S122Q/S92M/V174A); assay: Split NanoLuc luciferase complementation in yeast, NLuc^N-PYR1^PIRI/NLuc^C-HAB1; assay type: cell-based
T2 construct: >PYR1-PIRI; expressed in transfected cells; host or cells: Saccharomyces cerevisiae BY4742

PYR1^PIRI / HAB1 = molecular target: T3, PYR1^PIRI / HAB1 (Arabidopsis thaliana, UniProt O49686, A160T/E130G/F159T/K59R/N119S/S122Q/S92M/V174A); assay: Ligand/receptor-mediated PP2C (HAB1 phosphatase) inhibition, PYR1^PIRI; assay type: biochemical
T3 construct: made in house
T3 sequence (O49686 with tags, fused parts or gaps K59R/S92M/N119S/S122Q/E130G/F159T/A160T/V174A): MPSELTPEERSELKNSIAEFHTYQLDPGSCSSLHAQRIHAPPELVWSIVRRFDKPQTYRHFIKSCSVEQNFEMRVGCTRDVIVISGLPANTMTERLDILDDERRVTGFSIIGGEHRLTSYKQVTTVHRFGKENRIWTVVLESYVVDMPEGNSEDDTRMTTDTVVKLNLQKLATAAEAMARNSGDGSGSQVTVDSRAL

PYR1^4F / ΔN-HAB1 = molecular target: T4, PYR1^4F / ΔN-HAB1 (Arabidopsis thaliana, UniProt O49686, A160G/F159V/H115Q/Y120G); assay: Ligand/receptor-mediated PP2C (ΔN-HAB1 phosphatase) inhibition, PYR1^4F; assay type: biochemical
T4 construct: 6xHis (N); made in house; host or cells: E. coli BL21 (DE3) pLysS
T4 sequence (O49686 with tags, fused parts or gaps H115Q/Y120G/F159V/A160G): T3 sequence (O49686 with tags, fused parts or gaps K59R/S92M/N119S/S122Q/E130G/F159T/A160T/V174A) with R59K, M92S, H115Q, S119N, Y120G, Q122S, G130E, T159V, T160G, A174V
T4 sequence (Q9CAJ0 179-511 partner): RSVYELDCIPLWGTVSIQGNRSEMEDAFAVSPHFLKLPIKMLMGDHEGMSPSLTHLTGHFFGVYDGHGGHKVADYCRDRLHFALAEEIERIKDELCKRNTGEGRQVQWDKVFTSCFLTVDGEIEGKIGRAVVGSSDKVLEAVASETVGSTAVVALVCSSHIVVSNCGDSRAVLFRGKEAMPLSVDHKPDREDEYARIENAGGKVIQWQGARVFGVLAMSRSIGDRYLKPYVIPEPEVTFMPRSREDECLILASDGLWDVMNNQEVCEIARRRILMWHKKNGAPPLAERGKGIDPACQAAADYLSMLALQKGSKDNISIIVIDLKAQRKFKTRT
Method: Coding sequences of the cannabinoid sensors were cloned into the protein expression vector pET28a to encode 6×His-tag-receptor fusions. Constructs were sequenced and transformed into the BL21 (DE3) pLysS E. coli strain for heterologous expression with IPTG (1 mM), followed by purification, using affinity chromatography, as previously reported. In vitro validation of evolved sensors was performed by using recombinant sensors and ΔN-HAB1 (HAB1 Δ1–178, ref. [36]) proteins, as previously described. […] Cannabinoid concentration curves ranged from 4 to 10,000 nM, and median inhibitory concentrations for PP2C inhibition were obtained via fluorescent measurement in the presence of 1 mM 4-methylumbelliferyl phosphate.

PYR1^4F [5] = molecular target: T5, PYR1^4F (Arabidopsis thaliana, UniProt O49686, A160G/F159V/H115Q/Y120G); assay: Yeast transcriptional activation circuit Z4-PYR1/VP64-ΔN-HAB1, GFP reporter, PYR1^4F
T5 sequence (O49686 with tags, fused parts or gaps H115Q/Y120G/F159V/A160G): T3 sequence (O49686 with tags, fused parts or gaps K59R/S92M/N119S/S122Q/E130G/F159T/A160T/V174A) with R59K, M92S, H115Q, S119N, Y120G, Q122S, G130E, T159V, T160G, A174V
T5 sequence (Q9CAJ0 179-511 partner): T4 sequence (Q9CAJ0 179-511 partner)

PYR1^4F [6] = molecular target: T5, PYR1^4F; assay: Split NanoLuc luciferase complementation in yeast, NLuc^N-PYR1^4F/NLuc^C-ΔN-HAB1; assay type: cell-based; set-up: >PYR1-4FMDMB; expressed in transfected cells; host or cells: Saccharomyces cerevisiae BY4742
PYR1^WIN-M = molecular target: T6, PYR1^WIN-M (Arabidopsis thaliana, UniProt O49686, A160I/D26G/E4G/F159A/H60P/K59Q/N90S/Y23H); assay: ELISA-like plate assay, immobilized PYR1^WIN-M, biotinylated ΔN-HAB1^T+; assay type: binding; conditions: replicates
T6 construct: made in house
T6 sequence (O49686 with tags, fused parts or gaps E4G/Y23H/D26G/K59Q/H60P/N90S/F159A/A160I): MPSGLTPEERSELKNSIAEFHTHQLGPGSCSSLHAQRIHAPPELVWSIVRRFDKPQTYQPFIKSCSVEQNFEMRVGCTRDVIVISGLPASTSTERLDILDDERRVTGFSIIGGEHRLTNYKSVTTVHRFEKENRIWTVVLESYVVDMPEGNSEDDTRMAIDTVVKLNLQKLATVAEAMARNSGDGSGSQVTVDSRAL

PYR1^DIAZI [7] = molecular target: T7, PYR1^DIAZI (Arabidopsis thaliana, UniProt O49686, A160V/E8G/F108Y/F159G/L87M/M158V/V81Y); assay: Yeast transcriptional activation circuit Z4-PYR1/VP64-ΔN-HAB1, GFP reporter, PYR1^DIAZI; conditions: read-out: EC50, yeast transcription circuit; PYR1^DIAZI, off-target ligand
PYR1^DIAZI [8] = molecular target: T7, PYR1^DIAZI; assay: Split NanoLuc luciferase complementation in yeast, NLuc^N-PYR1^DIAZI/NLuc^C-HAB1; assay type: cell-based; set-up: >PYR1-DIAZI; expressed in transfected cells; host or cells: Saccharomyces cerevisiae BY4742; conditions: Figure 4f(top), 3 replicates
ABA-PYR1M complex = molecular target: T8, ABA-PYR1M complex (Arabidopsis thaliana, UniProt O49686, H60P/N90S); assay: Yeast surface display titration of HAB1 variants against PYR1^M in the presence of 500 nM ABA; assay type: binding; conditions: HAB1 variant for the ABA-PYR1M complex, 95% CI in brackets, read-out: KD2
T8 construct: c-myc (display detection tag); expressed in transfected cells; host or cells: yeast (surface display of PYR1^M); the HAB1 variants were recombinant and purified
T8 sequence (O49686 1-191 H60P/N90S): T1 sequence (O49686 1-191 H60P/N90S)
Method: For crystallographic structures, PYL2 and ΔN-HAB1^T+ were expressed in E. coli and purified as described previously. Assays for phosphatase activity and apparent Tm, measured via thermal challenge using yeast surface display, were performed essentially as previously described.
(a) Assessment of stabilized, inactivated 6xHis -MBP-ΔN -HAB1 variants. Experiments were repeated on two separat e days using independently generated batches of protein. Error bars indicate 1 SD of 3 measure ments . Sets of mutations f or each variant are noted in Supporting File 1.
MBP-ΔN -HAB1 variants using p-NPP.
HAB1 variants using YSD of PYR1M, in the presence of 500 nM ABA and 20 nM 6xHis -MBP-ΔN -HAB1 variant. The […]
here ref ers to streptavidin -phycoerythrin.
(b) Gating strategy for analysis of data shown in part (a). The f luorescence (a.u.) reported in part (a) is the gated ΔN - HAB 1T+ binding as measured by streptavidin -phycoeryt hrin (SAPE).

T7 sequence (O49686 other isoform, or with tags, fused parts or gaps E8G/V81Y/L87M/F108Y/M158V/F159G/A160V, one chain of several): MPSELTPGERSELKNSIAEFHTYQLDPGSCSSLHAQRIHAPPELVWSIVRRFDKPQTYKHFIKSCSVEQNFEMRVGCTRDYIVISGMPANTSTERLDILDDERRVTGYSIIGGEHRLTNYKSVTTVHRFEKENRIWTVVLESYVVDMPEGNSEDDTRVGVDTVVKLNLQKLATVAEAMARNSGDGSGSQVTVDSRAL

In the case of “NLuc^C-ΔN-HAB1 (from UniProt Q9CAJ0 179-511) (enzyme)”, the in vitro inhibition of ΔN-HAB1 phosphatase activity by recombinant 6×His-PYR1^4F (25 nM receptor, 25 nM ΔN-HAB1, 4-methylumbelliferyl phosphate); EC50 of the ligand 4F-MDMB-BUTINACA [1] is reported as 102 nM, the in vitro inhibition of ΔN-HAB1 phosphatase activity by recombinant 6×His-PYR1^WIN (50 nM receptor, 25 nM ΔN-HAB1, 4-methylumbelliferyl phosphate); EC50 of the ligand WIN 55,212-2 [2] is reported as 72 nM and the receptor-mediated inhibition of HAB1 phosphatase activity in vitro; EC50 of the ligand pirimiphos-methyl [3] is reported as 58 nM. The receptor-mediated inhibition of HAB1 phosphatase activity in vitro; EC50 of the ligand diazinon [4] was 36 nM.

In the case of `CC1=CC(=O)CC(C)(C)[C@@]1(O)/C=C/C(C)=C\C(=O)O` [ABA, abscisic acid], the “ELISA signal generation, positive control (source data)” value (PYR1^M (H60P, N90S); 2 nM) is reported as 2.266 and 2.046 and 2.24, the “ELISA signal generation, positive control (source data)” value (PYR1^M (H60P, N90S); 2 μM) is reported as 3.553 and 3.555 and 3.41 and the “Amax [AU 450 nm]” value (PYR1^M (H60P, N90S); global fit, PYR1M/ABA/ΔN-HAB1T+ system, Biorep 1-3) is reported as 2 AU 450 nm and 2.8 AU 450 nm. The Kd (PYR1^M (H60P, N90S); global fit, PYR1M/ABA/ΔN-HAB1T+ system, Biorep 1-3, read-out: KD1) was 820 nM and 780 nM and 2090 nM.

`CCN(CC)c1nc(C)cc(OP(=S)(OC)OC)n1` [Pirimiphos-methyl, pirimiphos-methyl] was tested, and the EC50 (PYR1^PIRI) was 19 nM, the EC50 (PYR1^PIRI / HAB1) was 58 nM and the “ligand concentrations required for activation of PYR1^PIRI above background” value (PYR1^PIRI / HAB1; HAB1 inhibition and Y2H assays) was “low-nanomolar concentrations”.

In the case of `COC(=O)C(NC(=O)c1nn(CCCCF)c2ccccc12)C(C)(C)C` (stereo not drawn) [4F-MDMB, 4F-MDMB-BUTINACA], the EC50 (PYR1^4F / ΔN-HAB1) is reported as 102 nM, the EC50 (PYR1^4F [5]) is reported as 23 nM and the EC50 (PYR1^4F [6]) is reported as 25 nM. For the same molecule, the “ELISA signal generation, receptor cross-reactivity (source data)” value (PYR1^WIN-M; cannabinoid at 2 nM) was 0.813 and 0.154 and 0.125 and the “ELISA signal generation, receptor cross-reactivity (source data)” value (PYR1^WIN-M; cannabinoid at 2 μM) was 0.116 and 0.117 and 0.101.

For `CCOP(=S)(OCC)SCn1nnc2ccccc2c1=O` [Azinphos-ethyl, azinphos-ethyl], the EC50 (PYR1^DIAZI [7]) was 1100 nM, the “Sensor signal (Figure 4f top), replicate values” (“Sensor signal (Figure 4f top)” below) (PYR1^DIAZI [8]; [Agonist] 1e-5 nM) was 19.1784 and 9.602 and 15.5607 and the “Sensor signal (Figure 4f top)” value (PYR1^DIAZI [8]; [Agonist] 0.5 nM) was 28.6964 and 14.557 and 20.4786. For the same molecule, the “Sensor signal (Figure 4f top)” value (PYR1^DIAZI [8]; [Agonist] 1 nM) was 22.2741 and 20.8671 and 16.0353, the “Sensor signal (Figure 4f top)” value (PYR1^DIAZI [8]; [Agonist] 10 nM) was 14.152 and 32.187 and 17.3809 and the “Sensor signal (Figure 4f top)” value (PYR1^DIAZI [8]; [Agonist] 100 nM) was 20.787 and 38.118 and 25.3718. The “Sensor signal (Figure 4f top)” value (PYR1^DIAZI [8]; [Agonist] 1000 nM) was 52.3582 and 54.3696 and 50.5941, the “Sensor signal (Figure 4f top)” value (PYR1^DIAZI [8]; [Agonist] 10000 nM) was 95.7293 and 70.2485 and 89.5341 and the “Sensor signal (Figure 4f top)” value (PYR1^DIAZI [8]; [Agonist] 100000 nM) was 109.007 and 68.7025 and 93.3077.

B1: T+ (723): stabilized, catalytically inactive ΔN-HAB1 derivative with 15 mutations (pJS723) (protein)
chain: T1 sequence (Q9CAJ0 179-511 C186S/R199A/D204A/S209V/H248S/F260E/C274S/D287K/S292N/S342A/M358I/N377A/R422E/N439S/M483K partner)
modifications: biotinylated in the ELISA-like assays
With B1 the Kd (ABA-PYR1M complex; Biorep 1) was 2.13 nM and the Kd (ABA-PYR1M complex; Biorep 2) was 4.76 nM.
